Data: patent US9278990B2, “Substituted nucleotide analogs” (priority 2010, dated 2016)

Tested on: Huh-7 cells containing the self-replicating, subgenomic HCV replicon
Assay: HCV replicon assay (luciferase reporter)
Type: cell-based
Conditions: Hepatitis C virus, Huh-7, 72 h
Procedure: Huh-7 cells containing the self-replicating, subgenomic HCV replicon with a stable luciferase (LUC) reporter were cultured in Dulbecco's modified Eagle's medium (DMEM) containing 2 mM L-glutamine and supplemented with 10% heat-inactivated fetal bovine serum (FBS), 1% penicillin-streptomyocin, 1% nonessential amino acids, and 0.5 mg/mL G418.
On the first day, 5,000 HCV replicon cells were plated per well in a 96-well plate. On the following day, test compounds were solubilized in 100% DMSO to 100× the desired final testing concentration. Each compound was then serially diluted (1:3) up to 9 different concentrations. Compounds in 100% DMSO are reduced to 10% DMSO by diluting 1:10 in cell culture media. The compounds were diluted to 10% DMSO with cell culture media, which were used to dose the HCV replicon cells in 96-well format. The final DMSO concentration was 1%. The HCV replicon cells were incubated at 37° C. for 72 hours. At 72 hours, cells were processed when the cells are still subconfluent. Compounds that reduce the LUC signal are determined by Bright-Glo Luciferase Assay (Promega, Madison, Wis.). Percent Inhibition was determined for each compound concentration in relation to the control cells (untreated HCV replicon) to calculate the EC50.

`C[C@H](NP(=S)(OC[C@H]1O[C@@H](n2ccc(=O)[nH]c2=O)[C@](C)(F)[C@@H]1O)Oc1ccccc1)C(=O)OC1CCCCC1` (stereo partly drawn) and `C[C@H](NP(=S)(OC[C@H]1O[C@@H](n2ccc(=O)[nH]c2=O)[C@](C)(O)[C@@H]1O)Oc1ccccc1)C(=O)OC1CCCCC1` (stereo partly drawn) cannot be ordered by EC50: under 1000 nM for the first, under 1000 nM for the second.

`C[C@H](NP(=S)(OC[C@H]1O[C@@H](n2ccc(=O)[nH]c2=O)[C@](C)(F)[C@@H]1O)Oc1ccccc1)C(=O)OCC(C)(C)C` (stereo partly drawn) and `C[C@H](NP(=S)(OC[C@H]1O[C@@H](n2ccc(=O)[nH]c2=O)[C@](C)(O)[C@@H]1O)Oc1ccccc1)C(=O)OCC(C)(C)C` (stereo partly drawn) cannot be ordered by EC50: under 1000 nM for the first, under 1000 nM for the second.

`CC(C)OC(=O)[C@H](C)NP(=S)(OC[C@H]1O[C@@H](n2ccc(=O)[nH]c2=O)[C@](C)(O)[C@@H]1O)Oc1cccc2ccccc12` (stereo partly drawn) and `C[C@H](NP(=S)(OC[C@H]1O[C@@H](n2ccc(=O)[nH]c2=O)[C@](C)(O)[C@@H]1O)Oc1cccc2ccccc12)C(=O)OCC(C)(C)C` (stereo partly drawn) cannot be ordered by EC50: under 1000 nM for the first, under 1000 nM for the second.

`C[C@H](NP(=S)(OC[C@H]1O[C@@H](n2ccc(=O)[nH]c2=O)[C@](C)(O)[C@@H]1O)Oc1cccc2ccccc12)C(=O)OC1CCCCC1` (stereo partly drawn) and `C[C@H](NP(=S)(OC[C@H]1O[C@@H](n2cnc3c(=O)[nH]c(N)nc32)[C@](C)(O)[C@@H]1O)Oc1ccccc1)C(=O)OC1CCCCC1` (stereo partly drawn) cannot be ordered by EC50: under 1000 nM for the first, under 1000 nM for the second.

`CC(C)OC(=O)[C@H](C)N[P@@](=S)(OC[C@H]1O[C@@H](n2ccc(=O)[nH]c2=O)[C@](C)(O)[C@@H]1O)Oc1ccccc1` and `CC(C)OC(=O)[C@H](C)N[P@](=S)(OC[C@H]1O[C@@H](n2ccc(=O)[nH]c2=O)[C@](C)(O)[C@@H]1O)Oc1ccccc1` cannot be ordered by EC50: under 1000 nM for the first, under 1000 nM for the second.

`[2H]C([2H])(OP(=S)(N[C@@H](C)C(=O)OC(C)C)Oc1ccccc1)[C@H]1O[C@@H](n2ccc(=O)[nH]c2=O)[C@](C)(O)[C@@H]1O` (stereo partly drawn) and `[2H]C([2H])(OP(=S)(N[C@@H](C)C(=O)OC(C)C)Oc1ccccc1)[C@H]1O[C@@H](n2ccc(=O)[nH]c2=O)[C@](C)(O)[C@@H]1OC(C)=O` (stereo partly drawn) cannot be ordered by EC50: under 1000 nM for the first, under 1000 nM for the second.

First: CC(C)OC(=O)[C@@H](NP(=S)(OC[C@H]1O[C@@H](n2ccc(=O)[nH]c2=O)[C@](C)(O)[C@@H]1O)Oc1ccccc1)C(C)C (stereo partly drawn)
Second: CC(C)C[C@H](NP(=S)(OC[C@H]1O[C@@H](n2ccc(=O)[nH]c2=O)[C@](C)(O)[C@@H]1O)Oc1ccccc1)C(=O)OC(C)C (stereo partly drawn)
The EC50 of the first is higher: 10000 to 100000 nM for the first, 1000 to 10000 nM for the second.

`C[C@H](NP(=S)(OC[C@H]1O[C@@H](n2cnc3c(=O)[nH]c(N)nc32)[C@](C)(O)[C@@H]1O)Oc1ccccc1)C(=O)OCC(C)(C)C` (stereo partly drawn) and `C[C@H](NP(=S)(OC[C@H]1O[C@@H](n2cnc3c(=O)[nH]c(N)nc32)[C@](C)(F)[C@@H]1O)Oc1ccccc1)C(=O)OCC(C)(C)C` (stereo partly drawn) cannot be ordered by EC50: under 1000 nM for the first, under 1000 nM for the second.

`CC(C)OC(=O)[C@H](C)NP(=S)(OC[C@H]1O[C@@H](n2cnc3c(=O)[nH]c(N)nc32)[C@](C)(O)[C@@H]1O)Oc1ccccc1` (stereo partly drawn) and `COc1nc(N)nc2c1ncn2[C@@H]1O[C@H](COP(=S)(NC(C)C(=O)OC(C)C)Oc2ccccc2)C(O)C1(C)O` (stereo partly drawn) cannot be ordered by EC50: under 1000 nM for the first, under 1000 nM for the second.

`COc1nc(N)nc2c1ncn2[C@@H]1O[C@H](COP(=S)(NC(C)C(=O)OC(C)C)Oc2ccccc2)C(O)C1(C)F` (stereo partly drawn) and `CC(C)OC(=O)[C@H](C)NP(=S)(OC[C@H]1O[C@@H](n2ccc(=O)[nH]c2=O)[C@](C)(O)[C@@H]1OC(=O)C(C)C)Oc1ccccc1` (stereo partly drawn) cannot be ordered by EC50: under 1000 nM for the first, under 1000 nM for the second.

First: CC(C)OC(=O)C(C)NP(=S)(OC[C@@]1(N=[N+]=[N-])O[C@@H](n2ccc(=O)[nH]c2=O)[C@H](O)[C@@H]1O)Oc1ccccc1 (stereo partly drawn)
Second: CCC(=O)O[C@@H]1[C@@H](COP(=S)(N[C@@H](C)C(=O)OC(C)C)Oc2ccccc2)O[C@@H](n2ccc(=O)[nH]c2=O)[C@]1(C)O (stereo partly drawn)
The EC50 of the first is higher: 10000 to 100000 nM for the first, under 1000 nM for the second.

`CCC(=O)O[C@@H]1[C@@H](COP(=S)(N[C@@H](C)C(=O)OC(C)C)Oc2ccccc2)O[C@@H](n2ccc(=O)[nH]c2=O)[C@]1(C)OC(=O)CC` (stereo partly drawn) and `CC(C)OC(=O)[C@H](C)NP(=S)(OC[C@H]1O[C@@H](n2ccc(=O)[nH]c2=O)[C@](C)(OC(=O)C(C)C)[C@@H]1OC(=O)C(C)C)Oc1ccccc1` (stereo partly drawn) cannot be ordered by EC50: under 1000 nM for the first, under 1000 nM for the second.
